Experimental data from patent US10945432B2, “Active compound combinations comprising a (thio)carboxamide derivative and a fungicidal compound” (BAYER CROPSCIENCE AKTIENGESELLSCHAFT, priority 2013, dated 2021).

Columns and labels:
Assay type in all cases: in vivo
Botrytis cinerea = experiment: Botrytis test (beans)/preventive; conditions: Table B1, 2 days after inoculation
Experimental: (§1) • Solvent: 24.5 parts by weight of acetone • 24.5 parts by weight of dimethylacetamide • Emulsifier: 1 part by weight of alkylaryl polyglycol ether
(§2) To produce a suitable preparation of active compound, 1 part by weight of active compound is mixed with the stated amounts of solvent and emulsifier, and the concentrate is diluted with water to the desired concentration.
To test for preventive activity, young plants are sprayed with the preparation of active compound. After the spray coating has dried on, 2 small pieces of agar covered with growth of Botrytis cinerea are placed on each leaf. The inoculated plants are placed in a darkened chamber at 20° C. and a relative atmospheric humidity of 100%.
2 days after the inoculation, the size of the lesions on the leaves is evaluated. 0% means an efficacy which corresponds to that of the untreated control, while an efficacy of 100% means that no disease is observed.

Pyrenophora teres = experiment: Pyrenophora teres-test (barley)/preventive; conditions: Table C1, 8 days after inoculation
Experimental: (§3) • Solvent: 49 parts by weight of N,N-dimethylacetamide • Emulsifier: 1 part by weight of alkylaryl polyglycol ether
(§4) To produce a suitable preparation of active compound, 1 part by weight of active compound or active compound combination is mixed with the stated amounts of solvent and emulsifier, and the concentrate is diluted with water to the desired concentration.
(§5) To test for preventive activity, young plants are sprayed with the preparation of active compound or active compound combination at the stated rate of application. After the spray coating has been dried, the plants are sprayed with a spore suspension of Pyrenophora teres. The plants remain for 48 hours in an incubation cabinet at approximately 20° C. and a relative atmospheric humidity of approximately 100%. The plants are placed in the greenhouse at a temperature of approximately 20° C. and a relative atmospheric humidity of approximately 80%.
The test is evaluated 8 days after the inoculation. 0% means an efficacy which corresponds to that of the untreated control, while an efficacy of 100% means that no disease is observed.

Venturia inaequalis = experiment: Venturia test (apples)/preventive; conditions: 10 days after inoculation
Experimental: as §1, §2
To test for preventive activity, young plants are sprayed with the preparation of active compound at the stated rate of application. After the spray coating has dried on, the plants are inoculated with an aqueous conidia suspension of the causal agent of apple scab (Venturia inaequalis) and then remain for 1 day in an incubation cabinet at approximately 20° C. and a relative atmospheric humidity of 100%. The plants are then placed in a greenhouse at approximately 21° C. and a relative atmospheric humidity of approximately 90%.
The test is evaluated 10 days after the inoculation. 0% means an efficacy which corresponds to that of the untreated control, while an efficacy of 100% means that no disease is observed.

Sphaerotheca fuliginea = experiment: Sphaerotheca test (cucumbers)/preventive; conditions: Table E1, 7 days after inoculation
Experimental: as §1, §2
(§6) To test for preventive activity, young plants are sprayed with the preparation of active compound at the stated rate of application. After the spray coating has dried on, the plants are inoculated with an aqueous spore suspension of Sphaerotheca fuliginea. The plants are then placed in a greenhouse at approximately 23° C. and a relative atmospheric humidity of approximately 70%.
The test is evaluated 7 days after the inoculation. 0% means an efficacy which corresponds to that of the untreated control, while an efficacy of 100% means that no disease is observed.

Septoria tritici = experiment: Septoria tritici-test (wheat)/preventive; conditions: 21 days after inoculation
Experimental: as §3, §4
as §5, with “suspension of Septoria tritici. The plants” for “suspension of Pyrenophora teres. The plants”, “of approximately 100% and afterwards for 60 hours at approximately 15° C. in a translucent incubation cabinet at a relative atmospheric humidity of approximately 100%. The” for “of approximately 100%. The”, “of approximately 15° C. and” for “of approximately 20° C. and”
The test is evaluated 21 days after the inoculation. 0% means an efficacy which corresponds to that of the untreated control, while an efficacy of 100% means that no disease is observed.

Alternaria solani = experiment: Alternaria test (tomatoes)/preventive; conditions: 3 days after inoculation
Experimental: as §1, §2
as §6, with “Alternaria solani.” for “Sphaerotheca fuliginea.”, “an incubation cabinet” for “a greenhouse”, “20°” for “23°”, “100%.” for “approximately 70%.”
The test is evaluated 3 days after the inoculation. 0% means an efficacy which corresponds to that of the untreated control while an efficacy of 100% means that no disease is observed.

## CC1(C)N=C(c2cnc3ccccc3c2)c2ccccc2C1(F)F [b27, 3-(4,4-difluoro-3,3-dimethyl-3,4-dihydroisoquinolin-1-yl)quinoline]
Botrytis cinerea; 1 ppm a.i.
  Efficacy in % found: 60%
Pyrenophora teres; 60 ppm a.i.
  Efficacy in % found: 38%
Pyrenophora teres; 240 ppm a.i.
  Efficacy in % found: 75%
Venturia inaequalis; Table F1, 0.5 ppm a.i.
  Efficacy in % found: 23%

## CON(C(=O)c1cn(C)nc1C(F)F)C(C)Cc1c(Cl)cc(Cl)cc1Cl (centres unmarked) [b29, 3-(difluoromethyl)-N-methoxy-1-methyl-N-[1-(2,4,6-trichlorophenyl)propan-2-yl]-1H-pyrazole-4-carboxamide]
Sphaerotheca fuliginea; 0.25 ppm a.i.
  Efficacy in % found: 30%
Sphaerotheca fuliginea; 1 ppm a.i.
  Efficacy in % found: 30%
Septoria tritici; Table D1, 5 ppm a.i.
  Efficacy in % found: 94%

## Cc1nn(C)c(Nc2c(F)cc(Cl)cc2F)c1-c1ccc(F)cc1Cl [b39, N-(4-chloro-2,6-difluorophenyl)-4-(2-chloro-4-fluorophenyl)-1,3-dimethyl-1H-pyrazol-5-amine]
Alternaria solani; Table A1, 1 ppm a.i.
  Efficacy in % found: 17%
Septoria tritici; Table D1, 60 ppm a.i.
  Efficacy in % found: 50%
Septoria tritici; Table D1, 240 ppm a.i.
  Efficacy in % found: 88%

## CC(O)(Cn1cncn1)c1ccc(Oc2ccc(Cl)cc2)cc1C(F)(F)F (centres unmarked) [b40, 2-[4-(4-chlorophenoxy)-2-(trifluoromethyl)phenyl]-1-(1H-1,2,4-triazol-1-yl)propan-2-ol]
Alternaria solani; Table A1, 2.5 ppm a.i.
  Efficacy in % found: 66%
Sphaerotheca fuliginea; 2.5 ppm a.i.
  Efficacy in % found: 37%
Sphaerotheca fuliginea; 10 ppm a.i.
  Efficacy in % found: 85%

## CCC(O)(Cn1cncn1)c1ccc(Oc2ccc(Cl)cc2)cc1C(F)(F)F (centres unmarked) [b41, 2-[4-(4-chlorophenoxy)-2-(trifluoromethyl)phenyl]-1-(1H-1,2,4-triazol-1-yl)butan-2-ol]
Botrytis cinerea; 10 ppm a.i.
  Efficacy in % found: 36%
Pyrenophora teres; 15 ppm a.i.
  Efficacy in % found: 25%
Pyrenophora teres; 60 ppm a.i.
  Efficacy in % found: 0%

## CC1(C)CN=C(c2cnc3ccccc3c2)c2cccc(F)c2O1 [b45, 9-fluoro-2,2-dimethyl-5-(quinolin-3-yl)-2,3-dihydro-1,4-benzoxazepine]
Alternaria solani; Table A2, 0.5 ppm a.i.
  Efficacy in % found: 24%
Septoria tritici; Table D2, 50 ppm a.i.
  Efficacy in % found: 0%
Septoria tritici; Table D2, 200 ppm a.i.
  Efficacy in % found: 0%
Venturia inaequalis; Table F2, 1 ppm a.i.
  Efficacy in % found: 0%

## Cc1nc2c(F)cccc2cc1Oc1cccc(F)c1C(C)(C)O [b46, 2-{2-fluoro-6-[(8-fluoro-2-methylquinolin-3-yl)oxy]phenyl}propan-2-ol]
Alternaria solani; Table A2, 0.5 ppm a.i.
  Efficacy in % found: 18%
Alternaria solani; Table A2, 1 ppm a.i.
  Efficacy in % found: 24%
Septoria tritici; Table D2, 50 ppm a.i.
  Efficacy in % found: 0%
Septoria tritici; Table D2, 200 ppm a.i.
  Efficacy in % found: 67%
Venturia inaequalis; Table F2, 0.5 ppm a.i.
  Efficacy in % found: 18%

## Cc1nc2c(F)c(F)ccc2cc1Oc1cccc(F)c1C(C)(C)O [b47, 2-{2-[(7,8-difluoro-2-methylquinolin-3-yl)oxy]-6-fluorophenyl}propan-2-ol]
Alternaria solani; Table A2, 0.5 ppm a.i.
  Efficacy in % found: 9%
Alternaria solani; Table A2, 1 ppm a.i.
  Efficacy in % found: 29%
Septoria tritici; Table D2, 50 ppm a.i.
  Efficacy in % found: 0%
Septoria tritici; Table D2, 200 ppm a.i.
  Efficacy in % found: 67%
Venturia inaequalis; Table F2, 0.5 ppm a.i.
  Efficacy in % found: 30%

## CC(C)c1ccc(Cl)cc1CN(C(=O)c1c(C(F)F)nn(C)c1F)C1CC1 [compound A5, N-(5-chloro-2-isopropylbenzyl)-N-cyclopropyl-3-(difluoromethyl)-5-fluoro-1-methyl-1H-pyrazole-4-carboxamide]
Alternaria solani; Table A1, 0.5 ppm a.i.
  Efficacy in % found: 38%
Alternaria solani; Table A1, 1 ppm a.i.
  Efficacy in % found: 30%
Alternaria solani; Table A2, 0.5 ppm a.i.
  Efficacy in % found: 0%
Alternaria solani; Table A2, 1 ppm a.i.
  Efficacy in % found: 41%
Sphaerotheca fuliginea; 0.5 ppm a.i.
  Efficacy in % found: 30%
Sphaerotheca fuliginea; 1 ppm a.i.
  Efficacy in % found: 37%
Botrytis cinerea; 1 ppm a.i.
  Efficacy in % found: 15%
Septoria tritici; Table D1, 5 ppm a.i.
  Efficacy in % found: 50%
Septoria tritici; Table D1, 10 ppm a.i.
  Efficacy in % found: 50%
Septoria tritici; Table D2, 10 ppm a.i.
  Efficacy in % found: 17%
Septoria tritici; Table D2, 20 ppm a.i.
  Efficacy in % found: 67%
Pyrenophora teres; 10 ppm a.i.
  Efficacy in % found: 13%
Venturia inaequalis; Table F1, 0.5 ppm a.i.
  Efficacy in % found: 0%
Venturia inaequalis; Table F1, 1 ppm a.i.
  Efficacy in % found: 0%
Venturia inaequalis; Table F2, 0.5 ppm a.i.
  Efficacy in % found: 0%
Venturia inaequalis; Table F2, 1 ppm a.i.
  Efficacy in % found: 0%
Venturia inaequalis; Table F2, 2 ppm a.i.
  Efficacy in % found: 29%
